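Cultured in 96-well plates, cells were exposed to test compound for 48 hours across five concentrations. At the TGI there is no net growth.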
Tests used:
Test in all cases: NCI anticancer screen, dose series, 48 h
[1] = test system: HS 578T breast
[2] = test system: COLO 205 colon
[3] = test system: OVCAR-5 ovarian
[4] = test system: NCI-H522 lung
[5] = test system: NCI/ADR-RES ovarian
[6] = test system: CCRF-CEM leukemia
[7] = test system: OVCAR-3 ovarian
[8] = test system: HCT-15 colon
[9] = test system: M14 melanoma
[10] = test system: UO-31 renal
[11] = test system: MCF7 breast
[12] = test system: SNB-19 CNS
[13] = test system: LOX IMVI melanoma
[14] = test system: OVCAR-4 ovarian
[15] = test system: SF-268 CNS
[16] = test system: HT29 colon
[17] = test system: TK-10 renal
[18] = test system: SF-295 CNS
[19] = test system: SW-620 colon
[20] = test system: K-562 leukemia
[21] = test system: RPMI-8226 leukemia
[22] = test system: MOLT-4 leukemia
[23] = test system: SK-OV-3 ovarian
[24] = test system: U251 CNS
[25] = test system: T-47D breast
[26] = test system: A549 NSCLC
[27] = test system: KM12 colon
[28] = test system: SNB-75 CNS
[29] = test system: NCI-H460 lung
[30] = test system: UACC-62 melanoma
[31] = test system: SK-MEL-28 melanoma
[32] = test system: IGROV1 ovarian
[33] = test system: NCI-H23 lung
[34] = test system: SK-MEL-5 melanoma
[35] = test system: BT-549 breast
[36] = test system: UACC-257 melanoma
[37] = test system: HOP-62 NSCLC
[38] = test system: CAKI-1 renal
[39] = test system: HOP-92 NSCLC
[40] = test system: MALME-3M melanoma
[41] = test system: NCI-H226 lung
[42] = test system: 786-0 renal
[43] = test system: HL-60(TB) leukemia
[44] = test system: SN12C renal
[45] = test system: MDA-MB-435
[46] = test system: SK-MEL-2 melanoma
[47] = test system: SR leukemia
[48] = test system: OVCAR-8 ovarian
[49] = test system: EKVX NSCLC
[50] = test system: PC-3 prostate
[51] = test system: ACHN renal
[52] = test system: DU-145 prostate
[53] = test system: SF-539 CNS
[54] = test system: MDA-MB-231 breast
[55] = test system: HCC-2998 colon
[56] = test system: HCT-116 colon
[57] = test system: RXF 393 renal

O=C(O)C12CCC(CC1=O)C2 (configuration not stated)
TGI [1]: > 100 µM | TGI [2]: > 100 µM | TGI [3]: > 100 µM | TGI [4]: > 100 µM | TGI [5]: > 100 µM | TGI [6]: > 100 µM | TGI [7]: > 100 µM | TGI [8]: > 100 µM | TGI [9]: > 100 µM | TGI [10]: > 100 µM | TGI [11]: > 100 µM | TGI [12]: > 100 µM | TGI [13]: > 100 µM | TGI [14]: > 100 µM | TGI [15]: > 100 µM | TGI [16]: > 100 µM | TGI [17]: > 100 µM | TGI [18]: > 100 µM | TGI [19]: > 100 µM | TGI [20]: > 100 µM | TGI [21]: > 100 µM | TGI [22]: > 100 µM | TGI [23]: > 100 µM | TGI [24]: > 100 µM | TGI [25]: > 100 µM | TGI [26]: > 100 µM | TGI [27]: > 100 µM | TGI [28]: > 100 µM | TGI [29]: > 100 µM | TGI [30]: > 100 µM | TGI [31]: > 100 µM | TGI [32]: > 100 µM | TGI [33]: > 100 µM | TGI [34]: > 100 µM | TGI [35]: > 100 µM | TGI [36]: > 100 µM | TGI [37]: > 100 µM | TGI [38]: > 100 µM | TGI [39]: > 100 µM | TGI [40]: > 100 µM | TGI [41]: > 100 µM | TGI [42]: > 100 µM | TGI [43]: > 100 µM | TGI [44]: > 100 µM | TGI [45]: > 100 µM | TGI [46]: > 100 µM | TGI [47]: > 100 µM | TGI [48]: > 100 µM | TGI [49]: > 100 µM | TGI [50]: > 100 µM | TGI [51]: > 100 µM

Cc1cc(S(=O)(=O)NC(=NCCc2ccccc2)NN)c(S)cc1Cl
TGI [1]: 59.1 µM | TGI [52]: 34.6 µM | TGI [2]: > 100 µM | TGI [3]: 36.8 µM | TGI [4]: > 100 µM | TGI [5]: 57.8 µM | TGI [6]: 90.1 µM | TGI [7]: 74.8 µM | TGI [8]: 37.9 µM | TGI [9]: 91.5 µM | TGI [10]: 56.9 µM | TGI [11]: > 100 µM | TGI [12]: 36.7 µM | TGI [53]: 51.3 µM | TGI [13]: > 100 µM | TGI [54]: > 100 µM | TGI [55]: 50.6 µM | TGI [14]: > 100 µM | TGI [15]: 79.7 µM | TGI [16]: > 100 µM | TGI [17]: > 100 µM | TGI [56]: 71.1 µM | TGI [19]: 82.5 µM | TGI [20]: > 100 µM | TGI [21]: > 100 µM | TGI [22]: 63.9 µM | TGI [23]: 53.7 µM | TGI [24]: 32.4 µM | TGI [25]: 63 µM | TGI [26]: > 100 µM | TGI [27]: 66.7 µM | TGI [28]: 69.7 µM | TGI [30]: 40 µM | TGI [31]: 71.3 µM | TGI [32]: > 100 µM | TGI [57]: 64.7 µM | TGI [34]: 37.9 µM | TGI [35]: 66.2 µM | TGI [36]: > 100 µM | TGI [38]: > 100 µM | TGI [40]: 68.6 µM | TGI [41]: 66.3 µM | TGI [42]: > 100 µM | TGI [43]: > 100 µM | TGI [44]: > 100 µM | TGI [45]: 61.1 µM | TGI [46]: > 100 µM | TGI [47]: > 100 µM | TGI [48]: 35.2 µM | TGI [49]: > 100 µM | TGI [50]: > 100 µM
